Data published in patent US20100144767A1, “Use of sodium channel blockers for the treatment of visceral pain or pain caused by cancer treatment” (priority 2005, published 2010).
“And” between values parts separate entries of the source, which are not always exact repeats. Identical values can stand only once.

Legend:
[1] = tested on: formalin-induced inflammation; set-up: species or system rats; settings: rat, in vivo
[2] = tested on: pain (visceral pain, pain caused by therapy); settings: human, in vivo
[3] = tested on: moderate to severe pain associated with cancer; set-up: species or system human; settings: in vivo
[4] = tested on: postoperative pain (incised hind paw withdrawal latency); assay: Postoperative pain, thermal stimulus, four days of pre-treatment; assay type: in vivo, rats
Experimental: The studied compounds (dypirone at 40 mg/kg and tetrodotoxin at 0, 3, 4 μg/kg) were administered subcutaneously to groups of 12 male rats twice daily for 4 days. On the morning of Day 5, an incision was made in the hind paw of the rats. One hour later, the compounds were administered again and 30 minutes later, a thermal stimulus was applied in the incised paw and the latency to withdraw the hind paws was recorded.

[5] = tested on: carrageenan-induced inflammatory pain; set-up: species or system SD rats; settings: rat, in vivo
[6] = tested on: capsaicin-induced nociceptive behaviours; assay: Visceral pain model: capsaicin solution delivered to the colon, nociceptive behaviours counted for 30 min; set-up: species or system mice; settings: mouse, in vivo
[7] = tested on: postoperative pain (incised hind paw withdrawal latency); assay: Postoperative pain, thermal stimulus, acute treatment (hind paw incision); assay type: in vivo, rats; settings: Rattus norvegicus, iv

Which effective dosage [1] does the source give for `N=C1NC(O)C2C3OC4(O)OC(C(O)C2(N1)C4O)C3(O)CO` (stereo not drawn) [Tetrodotoxin, octahydro-12-(hydroxymethyl)-2-imino-5,9:7,10a-dimethano-10aH-[1,3]dioxocino[6,5-d]pyrimidine-4,7,10,11,12-pentol] here?
The effective dosage was 2.5 µg/mg.

What about the analgesic response [2] of the same compound?
The analgesic response was “no analgesic response”.

What about the “decrease in current and average pain intensity” value [2] of the same compound?
The value was “about 2 point”.

And the “most pain relief percentage” value [2]?
Its value is 89%.

And the pain score [2]?
The pain score was 7 /10 and 4 /10.

And the relief of pain [2]?
The relief of pain was “complete relief of their pain”.

What about the impression of change [3] of the same compound?
Its impression of change is 1.

What about the total response day [3] of the same compound?
The total response day was 66 days.

And the antinociceptive activity ([4]; rat, in vivo)?
Its antinociceptive activity is 35% and 39%.

What about the “effect upon the degree of inflammation” value [5] of the same compound?
Its value is “does not have any effect”.

And the “nociceptive threshold, Randall-Selitto test (paw pressure)” value ([5]; sc)?
The value was “higher nociceptive threshold”.

What about the “effects on capsaicin-induced nociceptive behaviours versus control” value ([6]; sc) of the same compound?
Its value is 30% and 58.8%.

What does the source list for `CN1CC[C@]23c4c5ccc(O)c4O[C@H]2[C@@H](O)C=C[C@H]3[C@H]1C5` [Morphine]?
ED50 [7]: 0.59 mg/kg; effects on capsaicin-induced nociceptive behaviours versus control [6]: 54.8% and 92.5% and 100%

For `Cc1c(N(C)CS(=O)(=O)[O-])c(=O)n(-c2ccccc2)n1C.[Na+]` [Dypirone, reference compound], which antinociceptive activity ([4]; 40 mg/kg s.c. b.i.d., four days of pre-treatment) is on record?
The antinociceptive activity was 40%.
